ChEMBL document CHEMBL4507297, “Data for DCP probe PF-04457845” (2021)

What was measured:
[1] = system: Epidermal growth factor receptor (Homo sapiens), P00533 [UNDEFINED MUTATION]; details: Compound concentration 1000.0 nM
[2] = molecular target: Serine/threonine-protein kinase 17B (Homo sapiens) (UniProt O94768); details: Compound concentration 1000.0 nM
[3] = molecular target: Tyrosine-protein kinase receptor TYRO3 (Homo sapiens) (UniProt Q06418); details: Compound concentration 1000.0 nM
[4] = molecular target: Platelet-derived growth factor receptor beta (Homo sapiens) (UniProt P09619); details: Compound concentration 1000.0 nM
[5] = molecular target: Casein kinase I isoform gamma-2 (Homo sapiens) (UniProt P78368); details: Compound concentration 1000.0 nM
[6] = molecular target: Mitogen-activated protein kinase kinase kinase kinase 3 (Homo sapiens) (UniProt Q8IVH8); details: Compound concentration 1000.0 nM
[7] = molecular target: Protein kinase C theta type (Homo sapiens) (UniProt Q04759); details: Compound concentration 1000.0 nM
[8] = molecular target: Mitogen-activated protein kinase kinase kinase kinase 1 (Homo sapiens) (UniProt Q92918); details: Compound concentration 1000.0 nM
[9] = molecular target: Mitogen-activated protein kinase kinase kinase 3 (Homo sapiens) (UniProt Q99759); details: Compound concentration 1000.0 nM
[10] = system: Phosphatidylinositol 4,5-bisphosphate 3-kinase catalytic subunit alpha isoform (Homo sapiens), P42336 [C420R]; details: Compound concentration 1000.0 nM
[11] = molecular target: Phosphatidylinositol 4-kinase beta (Homo sapiens) (UniProt Q9UBF8); details: Compound concentration 1000.0 nM
[12] = molecular target: Mitogen-activated protein kinase 3 (Homo sapiens) (UniProt P27361); details: Compound concentration 1000.0 nM
[13] = molecular target: Tyrosine-protein kinase Fes/Fps (Homo sapiens) (UniProt P07332); details: Compound concentration 1000.0 nM
[14] = molecular target: Serine/threonine-protein kinase PLK3 (Homo sapiens) (UniProt Q9H4B4); details: Compound concentration 1000.0 nM
[15] = molecular target: Serine/threonine-protein kinase/endoribonuclease IRE1 (Homo sapiens) (UniProt O75460); details: Compound concentration 1000.0 nM
[16] = molecular target: Rho-associated protein kinase 1 (Homo sapiens) (UniProt Q13464); details: Compound concentration 1000.0 nM
[17] = molecular target: Ribosomal protein S6 kinase alpha-6 (Homo sapiens) (UniProt Q9UK32); details: Compound concentration 1000.0 nM
[18] = molecular target: Dual specificity testis-specific protein kinase 1 (Homo sapiens) (UniProt Q15569); details: Compound concentration 1000.0 nM
[19] = molecular target: Serine/threonine-protein kinase 26 (Homo sapiens) (UniProt Q9P289); details: Compound concentration 1000.0 nM
[20] = system: Mast/stem cell growth factor receptor Kit (Homo sapiens), P10721 [A829P]; details: Compound concentration 1000.0 nM
[21] = molecular target: Serine/threonine-protein kinase LATS2 (Homo sapiens) (UniProt Q9NRM7); details: Compound concentration 1000.0 nM
[22] = molecular target: Ribosomal protein S6 kinase alpha-5 (Homo sapiens) (UniProt O75582); details: Compound concentration 1000.0 nM
[23] = system: Tyrosine-protein kinase ABL1 (Homo sapiens), P00519 [T315I]; details: Compound concentration 1000.0 nM
[24] = molecular target: Serine/threonine-protein kinase 16 (Homo sapiens) (UniProt O75716); details: Compound concentration 1000.0 nM
[25] = system: ALK tyrosine kinase receptor (Homo sapiens), Q9UM73 [C1156Y]; details: Compound concentration 1000.0 nM
[26] = molecular target: G protein-coupled receptor kinase 3 (Homo sapiens) (UniProt P35626); details: Compound concentration 1000.0 nM
[27] = molecular target: T1, Muscarinic acetylcholine receptor M2 (Homo sapiens) (UniProt P08172); details: Compound concentration 10.0 uM
T1 sequence (whole entry): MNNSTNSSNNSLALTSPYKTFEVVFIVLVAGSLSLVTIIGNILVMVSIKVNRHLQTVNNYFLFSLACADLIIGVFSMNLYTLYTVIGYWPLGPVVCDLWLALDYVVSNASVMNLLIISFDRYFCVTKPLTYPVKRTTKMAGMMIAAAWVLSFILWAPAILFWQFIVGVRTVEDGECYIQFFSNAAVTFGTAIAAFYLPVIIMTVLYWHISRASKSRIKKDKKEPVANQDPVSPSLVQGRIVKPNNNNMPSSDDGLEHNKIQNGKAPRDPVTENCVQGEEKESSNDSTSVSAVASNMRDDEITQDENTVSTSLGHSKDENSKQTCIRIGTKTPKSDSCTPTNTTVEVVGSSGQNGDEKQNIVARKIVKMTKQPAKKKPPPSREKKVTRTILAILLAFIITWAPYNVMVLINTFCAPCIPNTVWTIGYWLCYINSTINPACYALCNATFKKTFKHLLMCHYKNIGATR

[28] = molecular target: Epithelial discoidin domain-containing receptor 1 (Homo sapiens) (UniProt Q08345); details: Compound concentration 1000.0 nM
[29] = molecular target: Serine/threonine-protein kinase 32A (Homo sapiens) (UniProt Q8WU08); details: Compound concentration 1000.0 nM
[30] = molecular target: Fibroblast growth factor receptor 3 (Homo sapiens) (UniProt P22607); details: Compound concentration 1000.0 nM
[31] = molecular target: Bone morphogenetic protein receptor type-1A (Homo sapiens) (UniProt P36894); details: Compound concentration 1000.0 nM
[32] = molecular target: Serine/threonine-protein kinase MARK2 (Homo sapiens) (UniProt Q7KZI7); details: Compound concentration 1000.0 nM
[33] = system: Mast/stem cell growth factor receptor Kit (Homo sapiens), P10721 [V559D,V654A]; details: Compound concentration 1000.0 nM
[34] = molecular target: D(1B) dopamine receptor (Homo sapiens) (UniProt P21918); details: Compound concentration 10.0 uM
[35] = molecular target: Serine/threonine-protein kinase Nek1 (Homo sapiens) (UniProt Q96PY6); details: Compound concentration 1000.0 nM
[36] = molecular target: Casein kinase I isoform gamma-3 (Homo sapiens) (UniProt Q9Y6M4); details: Compound concentration 1000.0 nM
[37] = molecular target: Phosphatidylinositol 4-phosphate 3-kinase C2 domain-containing subunit beta (Homo sapiens) (UniProt O00750); details: Compound concentration 1000.0 nM
[38] = system: Epidermal growth factor receptor (Homo sapiens), P00533 [G719S]; details: Compound concentration 1000.0 nM
[39] = molecular target: Insulin receptor (Homo sapiens) (UniProt P06213); details: Compound concentration 1000.0 nM

Sequence of Ribosomal protein S6 kinase alpha-6 (Homo sapiens) (Q9UK32 whole entry): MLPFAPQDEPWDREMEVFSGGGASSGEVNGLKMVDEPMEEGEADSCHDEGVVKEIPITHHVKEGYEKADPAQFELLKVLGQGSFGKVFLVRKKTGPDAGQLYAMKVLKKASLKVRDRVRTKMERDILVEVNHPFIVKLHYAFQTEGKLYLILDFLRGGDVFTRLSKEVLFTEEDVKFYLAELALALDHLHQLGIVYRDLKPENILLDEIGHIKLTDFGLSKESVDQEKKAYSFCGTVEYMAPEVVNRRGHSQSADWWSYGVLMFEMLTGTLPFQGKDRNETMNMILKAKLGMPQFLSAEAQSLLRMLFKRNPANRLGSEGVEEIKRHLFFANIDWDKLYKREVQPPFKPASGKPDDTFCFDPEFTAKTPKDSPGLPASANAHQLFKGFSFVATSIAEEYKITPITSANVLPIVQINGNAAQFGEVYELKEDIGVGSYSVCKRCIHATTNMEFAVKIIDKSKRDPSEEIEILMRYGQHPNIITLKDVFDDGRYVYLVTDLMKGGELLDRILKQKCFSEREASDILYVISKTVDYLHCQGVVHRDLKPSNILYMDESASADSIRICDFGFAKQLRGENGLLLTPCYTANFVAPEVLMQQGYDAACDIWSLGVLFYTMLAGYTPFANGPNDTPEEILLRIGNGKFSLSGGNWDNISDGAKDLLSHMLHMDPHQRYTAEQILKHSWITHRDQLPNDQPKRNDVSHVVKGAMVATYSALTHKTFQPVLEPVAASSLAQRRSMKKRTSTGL
Sequence of Protein kinase C theta type (Homo sapiens) (Q04759 whole entry, looked up): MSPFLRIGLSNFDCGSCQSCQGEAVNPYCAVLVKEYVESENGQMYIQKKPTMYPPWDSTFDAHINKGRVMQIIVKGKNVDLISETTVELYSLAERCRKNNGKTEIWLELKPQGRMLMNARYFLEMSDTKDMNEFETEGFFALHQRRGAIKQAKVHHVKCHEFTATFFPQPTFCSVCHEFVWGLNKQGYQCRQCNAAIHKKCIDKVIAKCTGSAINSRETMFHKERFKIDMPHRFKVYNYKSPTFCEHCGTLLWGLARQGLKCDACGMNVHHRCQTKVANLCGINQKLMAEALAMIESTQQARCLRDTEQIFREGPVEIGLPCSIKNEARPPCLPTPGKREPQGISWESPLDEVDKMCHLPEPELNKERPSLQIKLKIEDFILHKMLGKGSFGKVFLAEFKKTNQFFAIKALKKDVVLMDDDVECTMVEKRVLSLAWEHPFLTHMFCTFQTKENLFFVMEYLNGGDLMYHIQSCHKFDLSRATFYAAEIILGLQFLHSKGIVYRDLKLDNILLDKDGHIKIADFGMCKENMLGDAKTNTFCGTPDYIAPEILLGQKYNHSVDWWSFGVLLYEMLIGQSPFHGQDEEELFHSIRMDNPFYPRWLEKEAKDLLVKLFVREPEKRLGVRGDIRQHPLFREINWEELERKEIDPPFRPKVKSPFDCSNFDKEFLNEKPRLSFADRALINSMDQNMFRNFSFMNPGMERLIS
Sequence of Rho-associated protein kinase 1 (Homo sapiens) (Q13464 2-1354 limits assumed): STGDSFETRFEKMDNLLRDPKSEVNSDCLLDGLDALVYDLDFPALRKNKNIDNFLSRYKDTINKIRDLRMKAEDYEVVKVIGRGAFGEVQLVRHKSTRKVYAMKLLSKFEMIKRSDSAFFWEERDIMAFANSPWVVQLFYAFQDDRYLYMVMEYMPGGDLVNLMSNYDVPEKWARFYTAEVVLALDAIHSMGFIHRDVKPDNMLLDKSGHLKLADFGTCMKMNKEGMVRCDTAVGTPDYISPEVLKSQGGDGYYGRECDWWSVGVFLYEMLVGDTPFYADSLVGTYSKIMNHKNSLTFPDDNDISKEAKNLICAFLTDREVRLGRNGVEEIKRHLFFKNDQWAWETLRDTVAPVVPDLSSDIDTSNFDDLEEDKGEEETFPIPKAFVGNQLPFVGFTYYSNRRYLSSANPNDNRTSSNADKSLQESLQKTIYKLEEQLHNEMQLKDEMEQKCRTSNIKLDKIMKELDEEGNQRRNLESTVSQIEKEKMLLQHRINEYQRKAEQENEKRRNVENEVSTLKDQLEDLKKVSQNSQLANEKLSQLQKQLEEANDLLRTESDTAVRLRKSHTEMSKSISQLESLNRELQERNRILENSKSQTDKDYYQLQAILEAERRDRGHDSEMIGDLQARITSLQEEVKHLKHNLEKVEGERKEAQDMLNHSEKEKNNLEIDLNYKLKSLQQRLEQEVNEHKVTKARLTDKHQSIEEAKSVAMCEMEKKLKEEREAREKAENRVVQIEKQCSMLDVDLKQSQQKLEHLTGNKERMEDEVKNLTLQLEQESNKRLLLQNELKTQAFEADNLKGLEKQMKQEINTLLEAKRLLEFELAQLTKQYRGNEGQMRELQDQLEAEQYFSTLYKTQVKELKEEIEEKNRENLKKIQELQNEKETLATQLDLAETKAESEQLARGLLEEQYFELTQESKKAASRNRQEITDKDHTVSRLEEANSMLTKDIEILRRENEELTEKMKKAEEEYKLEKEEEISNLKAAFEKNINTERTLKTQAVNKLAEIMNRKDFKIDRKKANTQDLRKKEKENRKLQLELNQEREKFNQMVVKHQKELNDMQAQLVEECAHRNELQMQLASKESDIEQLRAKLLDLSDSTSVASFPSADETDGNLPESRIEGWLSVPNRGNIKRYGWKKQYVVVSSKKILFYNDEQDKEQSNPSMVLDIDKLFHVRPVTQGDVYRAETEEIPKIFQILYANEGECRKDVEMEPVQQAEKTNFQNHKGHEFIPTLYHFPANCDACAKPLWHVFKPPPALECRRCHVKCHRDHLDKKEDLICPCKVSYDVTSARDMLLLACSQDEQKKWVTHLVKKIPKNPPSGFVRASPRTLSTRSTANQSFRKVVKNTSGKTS
Sequence of Mitogen-activated protein kinase kinase kinase 3 (Homo sapiens) (Q99759 whole entry, canonical isoform): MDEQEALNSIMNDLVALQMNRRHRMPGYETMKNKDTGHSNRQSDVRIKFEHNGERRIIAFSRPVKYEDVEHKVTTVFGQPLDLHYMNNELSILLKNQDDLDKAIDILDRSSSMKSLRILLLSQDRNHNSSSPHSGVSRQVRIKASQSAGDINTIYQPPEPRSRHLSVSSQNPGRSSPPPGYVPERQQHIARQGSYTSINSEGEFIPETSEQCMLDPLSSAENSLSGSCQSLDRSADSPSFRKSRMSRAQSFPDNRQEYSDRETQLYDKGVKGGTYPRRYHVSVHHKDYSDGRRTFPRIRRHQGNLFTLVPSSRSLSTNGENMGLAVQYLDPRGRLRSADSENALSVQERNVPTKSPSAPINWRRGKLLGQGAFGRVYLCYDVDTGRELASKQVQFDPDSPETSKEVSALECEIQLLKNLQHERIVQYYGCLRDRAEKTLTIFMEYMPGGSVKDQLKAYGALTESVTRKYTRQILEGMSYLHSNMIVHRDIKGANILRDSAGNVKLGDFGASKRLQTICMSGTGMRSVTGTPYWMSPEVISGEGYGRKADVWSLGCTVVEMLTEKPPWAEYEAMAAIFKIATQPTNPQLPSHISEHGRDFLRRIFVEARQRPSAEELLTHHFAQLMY
Sequence of Ribosomal protein S6 kinase alpha-5 (Homo sapiens) (O75582 whole entry, looked up): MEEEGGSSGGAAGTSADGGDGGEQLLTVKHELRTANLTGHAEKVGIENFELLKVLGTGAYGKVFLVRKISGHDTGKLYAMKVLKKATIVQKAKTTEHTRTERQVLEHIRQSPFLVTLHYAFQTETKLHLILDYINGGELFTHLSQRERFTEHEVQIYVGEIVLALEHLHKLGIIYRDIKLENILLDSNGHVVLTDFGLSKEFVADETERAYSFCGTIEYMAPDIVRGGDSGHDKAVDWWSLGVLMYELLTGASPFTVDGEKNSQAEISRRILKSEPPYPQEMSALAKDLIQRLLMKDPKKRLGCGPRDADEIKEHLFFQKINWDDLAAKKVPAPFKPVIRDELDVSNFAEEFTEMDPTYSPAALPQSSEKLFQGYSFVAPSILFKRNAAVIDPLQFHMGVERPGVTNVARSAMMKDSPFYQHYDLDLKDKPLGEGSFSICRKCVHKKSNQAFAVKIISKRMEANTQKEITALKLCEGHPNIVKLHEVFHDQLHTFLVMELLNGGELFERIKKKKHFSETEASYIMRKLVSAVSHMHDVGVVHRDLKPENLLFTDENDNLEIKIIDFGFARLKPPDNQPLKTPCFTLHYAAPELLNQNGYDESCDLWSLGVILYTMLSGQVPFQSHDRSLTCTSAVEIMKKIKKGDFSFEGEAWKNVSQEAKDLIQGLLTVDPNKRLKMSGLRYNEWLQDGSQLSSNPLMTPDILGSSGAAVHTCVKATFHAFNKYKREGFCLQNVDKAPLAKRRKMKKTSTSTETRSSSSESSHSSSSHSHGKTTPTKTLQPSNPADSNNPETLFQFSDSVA
Sequence of Serine/threonine-protein kinase 32A (Homo sapiens) (Q8WU08 whole entry): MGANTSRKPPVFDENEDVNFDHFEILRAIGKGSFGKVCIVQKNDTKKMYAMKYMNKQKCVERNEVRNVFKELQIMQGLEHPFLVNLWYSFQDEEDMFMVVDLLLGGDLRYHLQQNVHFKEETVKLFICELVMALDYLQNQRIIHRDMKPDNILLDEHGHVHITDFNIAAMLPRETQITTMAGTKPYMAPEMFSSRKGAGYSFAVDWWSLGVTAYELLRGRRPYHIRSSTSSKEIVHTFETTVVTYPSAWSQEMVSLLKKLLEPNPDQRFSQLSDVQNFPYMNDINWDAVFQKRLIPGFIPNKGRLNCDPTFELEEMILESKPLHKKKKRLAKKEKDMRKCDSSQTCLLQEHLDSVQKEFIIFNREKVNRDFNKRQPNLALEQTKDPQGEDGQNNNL
Sequence of Serine/threonine-protein kinase 26 (Homo sapiens) (Q9P289 2-416 limits assumed): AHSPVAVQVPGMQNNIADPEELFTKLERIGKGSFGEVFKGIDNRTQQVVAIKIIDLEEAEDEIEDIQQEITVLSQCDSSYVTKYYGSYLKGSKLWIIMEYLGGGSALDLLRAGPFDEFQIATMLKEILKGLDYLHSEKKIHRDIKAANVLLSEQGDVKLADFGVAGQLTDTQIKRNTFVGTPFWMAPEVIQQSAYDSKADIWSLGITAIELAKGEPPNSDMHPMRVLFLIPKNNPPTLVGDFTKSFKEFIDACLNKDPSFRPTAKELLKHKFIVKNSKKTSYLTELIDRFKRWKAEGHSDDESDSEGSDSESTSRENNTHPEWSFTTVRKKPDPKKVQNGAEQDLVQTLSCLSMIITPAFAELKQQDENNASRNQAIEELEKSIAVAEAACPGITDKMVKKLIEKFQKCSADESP

O=C(Nc1cccnn1)N1CCC(=Cc2cccc(Oc3ccc(C(F)(F)F)cn3)c2)CC1
inactive: residual activity [1] 68% | residual activity [2] 100% | residual activity [3] 100% | residual activity [4] 97% | residual activity [5] 92% | residual activity [6] 100% | residual activity [7] 67% | residual activity [8] 80% | residual activity [9] 100% | residual activity [10] 100% | residual activity [11] 100% | residual activity [12] 100% | residual activity [13] 76% | residual activity [14] 100% | residual activity [15] 92% | residual activity [16] 100% | residual activity [17] 100% | residual activity [18] 91% | residual activity [19] 100% | residual activity [20] 96% | residual activity [21] 84% | residual activity [22] 83% | residual activity [23] 76% | residual activity [24] 90% | residual activity [25] 100% | residual activity [26] 100% | inhibition [27] 20.8% | residual activity [28] 79% | residual activity [29] 100% | residual activity [30] 83% | residual activity [31] 100% | residual activity [32] 100% | residual activity [33] 100% | inhibition [34] 29.3% | residual activity [35] 98% | residual activity [36] 100% | residual activity [37] 91% | residual activity [38] 99% | residual activity [39] 100%

O=C(Nc1cccnn1)N1CC(C/C=C/c2cncc(Oc3ccc(C(F)(F)F)cn3)n2)C1
inactive: residual activity [1] 100% | residual activity [2] 100% | residual activity [3] 100% | residual activity [4] 81% | residual activity [5] 100% | residual activity [6] 100% | residual activity [7] 100% | residual activity [8] 98% | residual activity [9] 79% | residual activity [10] 66% | residual activity [11] 91% | residual activity [12] 99% | residual activity [13] 91% | residual activity [14] 80% | residual activity [15] 67% | residual activity [16] 82% | residual activity [17] 80% | residual activity [18] 100% | residual activity [19] 71% | residual activity [20] 59% | residual activity [21] 100% | residual activity [22] 100% | residual activity [23] 80% | residual activity [24] 98% | residual activity [25] 81% | residual activity [26] 100% | inhibition [27] 20.7% | residual activity [28] 99% | residual activity [29] 100% | residual activity [30] 97% | residual activity [31] 100% | residual activity [32] 80% | residual activity [33] 100% | inhibition [34] 4.5% | residual activity [35] 100% | residual activity [36] 100% | residual activity [37] 93% | residual activity [38] 100% | residual activity [39] 100%
